Results from article PMC9656205, “In Vitro/In Vivo Translation of Synergistic Combination of MDM2 and MEK Inhibitors in Melanoma Using PBPK/PD Modelling: Part I” (International Journal of Molecular Sciences, 2022).
Where two headings read alike, the source gives them in different places.

Columns and labels:
A375 cells [1] = assay: RealTime-Glo MT cell viability assay, cytotoxicity and drug interaction analysis; type: cell-based; details: Homo sapiens, A-375, n = 3; for IC50: A375 cells, 72 h incubation, read-out: RealTime-Glo IC50 ± SD
Method: (§1) Inhibition of tumour cell viability after single and combination drug treatment was measured with the use of MTS assay (CellTiter 96® AQueous Non-Radioactive Cell Proliferation Assay) and RealTime-Glo assay (RealTime-Glo™ MT Cell Viability Assay) in A375 cell line using standard manufacturer protocols. […] Drug combinations were tested in the matrix layout with the increasing concentrations of both drugs (please see Figures S1 and S2). […] Several independent assay repetitions were performed for MTS (n = 4) and RealTime-Glo assays (n = 3).
(§2) Drug combination interaction analysis was performed on in vitro cytotoxicity data from MTS and RealTime-Glo assays. […] For Synergyfinder analysis parameters, see Table S4. For a more detailed description of all Synergyfinder functions, please see its documentation and user instructions.

[2] = Pharmacokinetics in plasma and A375 tumour tissue after single oral administration; type: in vivo, CD-1 nude mice; details: female, Crl:CD-1-Foxn1nu (CD-1 nude), mouse; for Cmax: n = 3; for AUC(0-t): n = 3, read-out: AUC0–24h ± SD
Method: Pharmacokinetic profiles were determined after single oral administration of HDM201 (100 mg/kg) and Trametinib (1 mg/kg) in vehicle formulation in CD-1 nude mice. Initial analysis of compound concentrations included plasma and A375 tumour tissue homogenates.
(§3) Crl:CD-1-Foxn1^nu female mice, 4–5 weeks old, from Charles River Germany, inoculated subcutaneously with A375 cells, were used for in vivo studies. Determination of compound concentrations in plasma and A375 tumour tissue homogenates were performed with the use of quantitative LC-MS/MS system. Plasma and tissue samples were resected at the following timepoints: 1.5, 4, 8, 24 h (n = 3 per timepoint) after oral administration. Pharmacokinetic parameters AUC, Cmax, and Tmax were calculated using MS Excel 2016. Area under the concentration versus time curve was calculated using the linear trapezoidal rule.

A375 cells [3] = system: A375 cells; parameters: method as in PMID 22169769; details: cell count by DAPI nuclei staining, read-out: Literature IC50; cited from earlier work
[4] = system: A375 melanoma tumour model; assay: In vivo efficacy, tumour growth inhibition in A375 xenograft; parameters: species or system CD-1 nude mice; details: n = 6
Method: The studied compounds, namely HDM201 and Trametinib, were tested separately and in combination as a therapy against an A375 melanoma tumour model. Tested compounds were administrated in three and six doses per schedule. […] Data from this efficacy study indicate that HDM201 and Trametinib are more efficacious when they are used in combination, compared to their efficacy when administered separately (please refer to maximal tumour growth inhibition (TGI) percentage, presented in Table 7, and compounds efficacy in single and combined administrations, shown in Figure 9).
as §3
Determination of tumour growth was performed after oral gavage of Vehicle (60% PEG 400 (v/v), 10% Cremophor RH40 (v/v), 10% EtOH (v/v) and 20% Labrafil M1944CS (v/v)), Siremadlin, Trametinib or their combination in Vehicle. The volume of the administered formulation (10 mL/kg) of the compounds was always adjusted to the mice body weight.
Tumour volume (V) was recorded with an electronic calliper 2–3 times a week and was calculated based on its length and width, using the prolate ellipsoid equation [46] (Equation (1)):V (mm^3) = d^2 × D/2(1) where d is the tumour width (mm) and D is the tumour length (mm).
Tumour growth inhibition (TGI) value was calculated using Equation (2):TGI (%) = (100 − (T/C × 100))(2) where C is the mean tumour size in control group (mm^3) and T is the mean tumour size in treated group (mm^3).

A375 cells [5] = assay: MTS assay (CellTiter 96 AQueous) cytotoxicity and drug interaction analysis; type: cell-based; details: Homo sapiens, A-375; for IC50: A375 cells, 72 h incubation, read-out: MTS IC50 ± SD
Method: as §1, §2

A375 cells [6] = assay: Mean of MTS and RealTime-Glo assays (cytotoxicity / drug interaction metrics); type: cell-based, human
Method: as §1, §2

A375 cells [7] = system: A375 cells; parameters: method as in PMID 30135191; details: cell count by amount of ATP (CellTiter-Glo assay), read-out: Literature IC50; cited from earlier work
[8] = A375 tumour tissue homogenate, 1 mg/kg, Trametinib 1 mg/kg single oral, with HDM201 100 mg/kg, A375 tumour
[9] = A375 tumour tissue homogenate, 1 mg/kg, Trametinib 1 mg/kg single oral, without HDM201, A375 tumour
[10] = plasma, 1 mg/kg, Trametinib 1 mg/kg single oral, with HDM201 100 mg/kg, plasma
[11] = plasma, 1 mg/kg, Trametinib 1 mg/kg single oral, without HDM201, plasma
[12] = plasma, range stated jointly for HDM201 and Trametinib, oral, mice, sparse sampling, read-out: typical Tmax
[13] = A375 tumour tissue homogenate, 100 mg/kg, HDM201 100 mg/kg single oral, without Trametinib, A375 tumour
[14] = A375 tumour tissue homogenate, HDM201 100 mg/kg single oral, with Trametinib 1 mg/kg, A375 tumour
[15] = plasma, 100 mg/kg, HDM201 100 mg/kg single oral, without Trametinib, plasma
[16] = plasma, HDM201 100 mg/kg single oral, with Trametinib 1 mg/kg, plasma

CC(=O)Nc1cccc(-n2c(=O)n(C3CC3)c(=O)c3c(Nc4ccc(I)cc4F)n(C)c(=O)c(C)c32)c1 [Trametinib]
IC50 (A375 cells [1]): 0.8 ± 0.4 nM
viability at 0.04 µM (A375 cells [1]; RealTime-Glo, max concentration 40 nM, last observation after 80h, read-out: % of viability at the last measurement ± SD): 14.9 ± 2.59%
Cmax [2, 8]: 0.715 ± 0.197 µM
AUC(0-t) [2, 8]: 9.66 ± 1.39 µM·h
Tmax ([2]; A375 tumour tissue homogenate, 1 mg/kg, Trametinib 1 mg/kg single oral, with HDM201 100 mg/kg, A375 tumour, n = 3, read-out: Tmax ± SD): 4 h
Cmax [2, 9]: 0.587 ± 0.0663 µM
AUC(0-t) [2, 9]: 9.13 ± 1.3 µM·h
Tmax ([2]; A375 tumour tissue homogenate, 1 mg/kg, Trametinib 1 mg/kg single oral, without HDM201, A375 tumour, n = 3, read-out: Tmax ± SD): 4 h
Cmax [2, 10]: 0.354 ± 0.106 µM
AUC(0-t) [2, 10]: 4.48 ± 1.17 µM·h
Tmax ([2]; plasma, 1 mg/kg, Trametinib 1 mg/kg single oral, with HDM201 100 mg/kg, plasma, n = 3, read-out: Tmax ± SD): 4 ± 1.44 h
Cmax [2, 11]: 0.567 ± 0.0494 µM
AUC(0-t) [2, 11]: 5.58 ± 0.567 µM·h
Tmax ([2]; plasma, 1 mg/kg, Trametinib 1 mg/kg single oral, without HDM201, plasma, n = 3, read-out: Tmax ± SD): 4 ± 1.44 h
Tmax [2, 12]: 1.5 to 4 h
IC50 (A375 cells [3]): 1 nM
Max TGI (%) ± SEM ([4]; Trametinib 0.3 mg/kg qdx6, oral): 65.47 ± 21.29%
Max TGI (%) ± SEM ([4]; Trametinib 1 mg/kg qdx6, oral): 90.05 ± 1.13%
IC50 (A375 cells [5]; n = 4): 0.58 ± 0.03 nM
viability at 0.004 µM (A375 cells [5]; MTS, max concentration 4 nM, last observation after 72h, n = 4, read-out: % of viability at the last measurement ± SD): 13.3 ± 2.6%
% of viability at the last measurement ± SD (A375 cells [6]; Trametinib): 14.097 ± 2.594%

COc1ncc(-c2nc3c(n2C(C)C)[C@H](c2ccc(Cl)cc2)N(c2cc(Cl)cn(C)c2=O)C3=O)c(OC)n1 [Siremadlin (HDM201), Siremadlin]
IC50 (A375 cells [1]): 260 ± 170 nM
viability at 4 µM (A375 cells [1]; RealTime-Glo, max concentration 4000 nM, last observation after 80h, read-out: % of viability at the last measurement ± SD): 21 ± 6.86%
IC50 (A375 cells [7]): 764 nM
Cmax [2, 13]: 16.2 µM
AUC(0-t) [2, 13]: 179 µM·h
Tmax ([2]; A375 tumour tissue homogenate, 100 mg/kg, HDM201 100 mg/kg single oral, without Trametinib, A375 tumour, n = 3, read-out: Tmax ± SD): 1.5 ± 1.44 h
Cmax [2, 14]: 28.6 µM
AUC(0-t) [2, 14]: 219 µM·h
Tmax ([2]; A375 tumour tissue homogenate, HDM201 100 mg/kg single oral, with Trametinib 1 mg/kg, A375 tumour, n = 3, read-out: Tmax ± SD): 1.5 ± 1.44 h
Cmax [2, 15]: 9.78 ± 2.98 µM
AUC(0-t) [2, 15]: 95.1 µM·h
Tmax ([2]; plasma, 100 mg/kg, HDM201 100 mg/kg single oral, without Trametinib, plasma, n = 3, read-out: Tmax ± SD): 1.5 ± 1.44 h
Cmax [2, 16]: 14.6 µM
AUC(0-t) [2, 16]: 108 µM·h
Tmax ([2]; plasma, HDM201 100 mg/kg single oral, with Trametinib 1 mg/kg, plasma, n = 3, read-out: Tmax ± SD): 1.5 ± 1.44 h
Tmax [2, 12]: 1.5 to 4 h
Max TGI (%) ± SEM ([4]; HDM201 40 mg/kg qdx3, oral): 33.39 ± 13.90%
Max TGI (%) ± SEM ([4]; HDM201 100 mg/kg qdx3, oral): 76.94 ± 5.38%
IC50 (A375 cells [5]; n = 4): 65.7 ± 4.7 nM
viability at 0.2 µM (A375 cells [5]; MTS, max concentration 200 nM, last observation after 72h, n = 4 (resistant population estimate), read-out: % of viability at the last measurement ± SD): 21.9 ± 5.92%
% of viability at the last measurement ± SD (A375 cells [6]; Siremadlin): 21.445 ± 6.389%
